Experimental findings from US11987588B2, “Modulators of the beta-3 adrenergic receptor useful for the treatment or prevention of heart failure and disorders related thereto” (Arena Pharmaceuticals, Inc., priority 2017, dated 2024) are described below.

The target in the test is Beta-3 Adrenergic Receptor (Homo sapiens (Human), UniProt P13945). Briefly: Homogeneous Time-Resolved Fluorescence (HTRF) cAMP antagonist assay, IC50 determination. The class given is cell-based. The settings on record: CHO-K1 cells stably expressing recombinant receptor, isoproterenol at EC90. In outline: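 Antagonist mode: isoproterenol at its predetermined EC90 added after compound to recombinant CHO-K1 cells in IBMX-containing PBS, 1 h, room temperature. Compounds tested as 5-fold, 10-point dilutions, top final typically 10 or 100 μM. HTRF signal converted to cAMP via standard curve, giving IC50.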
For orientation: TR-FRET usually uses a lanthanide donor and a delayed reading to cut background.

Chain of Beta-3 Adrenergic Receptor (P13945 whole entry, species assumed): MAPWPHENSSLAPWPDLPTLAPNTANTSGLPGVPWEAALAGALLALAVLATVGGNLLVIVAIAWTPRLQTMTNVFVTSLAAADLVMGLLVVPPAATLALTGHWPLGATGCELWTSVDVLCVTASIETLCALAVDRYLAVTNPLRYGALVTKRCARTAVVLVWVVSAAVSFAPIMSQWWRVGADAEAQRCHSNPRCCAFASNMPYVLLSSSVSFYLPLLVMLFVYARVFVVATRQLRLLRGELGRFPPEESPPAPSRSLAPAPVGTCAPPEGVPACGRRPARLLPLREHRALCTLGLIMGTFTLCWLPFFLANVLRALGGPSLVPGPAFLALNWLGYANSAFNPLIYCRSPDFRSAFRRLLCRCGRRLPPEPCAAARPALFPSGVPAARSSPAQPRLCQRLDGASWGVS

For `CNS(=O)(=O)c1cccc(OC[C@@H](O)CNC2COC3(CCN(S(=O)(=O)c4cnc5c(c4)N(C)CCO5)CC3)C2)c1` (stereo partly drawn) [Compound 399, 3-((2S)-2-hydroxy-3-(8-(1-methyl-2,3-dihydro-1H-pyrido[2,3-b][1,4]oxazin-7-ylsulfonyl)-1-oxa-8-azaspiro[4.5]decan-3-ylamino)propoxy)-N-methylbenzenesulfonamide], the IC50 (usually the concentration needed to halve the response being measured) was 0.0202 µM.

Take `CNS(=O)(=O)c1cccc(OC[C@@H](O)CN[C@H]2COC3(CCN(c4nccc(OC)n4)CC3)C2)c1` [Compound 568, 3-((S)-2-hydroxy-3-((R)-8-(4-methoxypyrimidin-2-yl)-1-oxa-8-azaspiro[4.5]decan-3-ylamino)propoxy)-N-methylbenzenesulfonamide]: the IC50 worked out at 0.411 µM.

Take `CNS(=O)(=O)c1cccc(OC[C@@H](O)CNC2COC3(CCN(S(=O)(=O)c4ccc(S(C)(=O)=O)cc4)CC3)C2)c1` (stereo partly drawn) [Compound 37, 3-((2S)-2-hydroxy-3-(8-(4-(methylsulfonyl)phenylsulfonyl)-1-oxa-8-azaspiro[4.5]decan-3-ylamino)propoxy)-N-methylbenzenesulfonamide]: the IC50 came to 0.0493 µM.

Consider `CNS(=O)(=O)c1cccc(OC[C@@H](O)CN[C@H]2COC3(CCN(S(=O)(=O)c4cnn(-c5ccccc5)c4C)CC3)C2)c1` [Compound 281, 3-((S)-2-hydroxy-3-((R)-8-(5-methyl-1-phenyl-1H-pyrazol-4-ylsulfonyl)-1-oxa-8-azaspiro[4.5]decan-3-ylamino)propoxy)-N-methylbenzenesulfonamide], for which the IC50 is 0.0107 µM.

For the molecule `CNS(=O)(=O)c1cccc(OC[C@@H](O)CN[C@H]2COC3(CCN(c4nccc(-c5ccccc5)n4)CC3)C2)c1` [Compound 572, 3-((S)-2-hydroxy-3-((R)-8-(4-phenylpyrimidin-2-yl)-1-oxa-8-azaspiro[4.5]decan-3-ylamino)propoxy)-N-methylbenzenesulfonamide], the IC50 was 0.0656 µM.

`CN(C)S(=O)(=O)c1cccc(OC[C@@H](O)CNC2COC3(CCN(S(=O)(=O)c4cccc(-c5ccc(OCC#N)cc5)c4)CC3)C2)c1` (stereo partly drawn) [Compound 276, 3-((2S)-3-(8-(4′-(cyanomethoxy)biphenyl-3-ylsulfonyl)-1-oxa-8-azaspiro[4.5]decan-3-ylamino)-2-hydroxypropoxy)-N,N-dimethylbenzenesulfonamide]: the IC50 was found to be 0.2 µM.

On to `CNS(=O)(=O)c1cccc(OC[C@@H](O)CN[C@H]2COC3(CCN(S(=O)(=O)c4cnc5nc(N)ccc5c4)CC3)C2)c1` [Compound 489, 3-((S)-3-((R)-8-(7-amino-1,8-naphthyridin-3-ylsulfonyl)-1-oxa-8-azaspiro[4.5]decan-3-ylamino)-2-hydroxypropoxy)-N-methylbenzenesulfonamide], for which the IC50 came out at 0.0339 µM.

Regarding `CNS(=O)(=O)c1cccc(OC[C@@H](O)CN[C@H]2COC3(CCN(S(=O)(=O)c4cccc(-c5ccc(OCC#N)cc5)c4)CC3)C2)c1` [Compound 298, 3-((S)-3-((R)-8-(4′-(cyanomethoxy)biphenyl-3-ylsulfonyl)-1-oxa-8-azaspiro[4.5]decan-3-ylamino)-2-hydroxypropoxy)-N-methylbenzenesulfonamide], the IC50 came out at 0.026 µM.

On to `CNS(=O)(=O)c1cccc(OC[C@@H](O)CNC2COC3(CCN(S(=O)(=O)c4ccc5c(Cl)cccc5c4)CC3)C2)c1` (stereo partly drawn) [Compound 223, 3-((2S)-3-(8-(5-chloronaphthalen-2-ylsulfonyl)-1-oxa-8-azaspiro[4.5]decan-3-ylamino)-2-hydroxypropoxy)-N-methylbenzenesulfonamide], for which the IC50 amounted to 0.0136 µM.

As for `CNS(=O)(=O)c1cccc(OC[C@@H](O)CNC2COC3(CCN(S(=O)(=O)c4ccc(-c5ccccc5)s4)CC3)C2)c1` (stereo partly drawn) [Compound 187, 3-((2S)-2-hydroxy-3-(8-(5-phenylthiophen-2-ylsulfonyl)-1-oxa-8-azaspiro[4.5]decan-3-ylamino)propoxy)-N-methylbenzenesulfonamide], the IC50 was found to be 0.00772 µM.

`CCn1cc(S(=O)(=O)N2CCC3(CC2)C[C@@H](NC[C@H](O)COc2cccc(S(N)(=O)=O)c2)CO3)c(=O)c2ccc(C)cc21` [Compound 557, 3-((S)-3-((R)-8-(1-ethyl-7-methyl-4-oxo-1,4-dihydroquinolin-3-ylsulfonyl)-1-oxa-8-azaspiro[4.5]decan-3-ylamino)-2-hydroxypropoxy)benzenesulfonamide]: the IC50 amounted to 0.0839 µM.

With `CNS(=O)(=O)c1cccc(OC[C@@H](O)CN[C@H]2COC3(CCN(S(=O)(=O)c4cnc5c(c4)[nH]c(=O)n5C)CC3)C2)c1` [Compound 518, 3-((S)-2-hydroxy-3-((R)-8-(3-methyl-2-oxo-2,3-dihydro-1H-imidazo[4,5-b]pyridin-6-ylsulfonyl)-1-oxa-8-azaspiro[4.5]decan-3-ylamino)propoxy)-N-methylbenzenesulfonamide], the IC50 stood at 0.133 µM.

Consider `CNS(=O)(=O)c1cccc(OC[C@@H](O)CNC2COC3(CCN(S(=O)(=O)c4ccc(OC)c(C)c4)CC3)C2)c1` (stereo partly drawn) [Compound 147, 3-((2S)-2-hydroxy-3-(8-(4-methoxy-3-methylphenylsulfonyl)-1-oxa-8-azaspiro[4.5]decan-3-ylamino)propoxy)-N-methylbenzenesulfonamide], for which the IC50 was found to be 0.013 µM.

Take `CNS(=O)(=O)c1cccc(OC[C@@H](O)CNC2COC3(CCN(S(=O)(=O)c4cccc(Cl)c4)CC3)C2)c1` (stereo partly drawn) [Compound 15, 3-((2S)-3-(8-(3-chlorophenylsulfonyl)-1-oxa-8-azaspiro[4.5]decan-3-ylamino)-2-hydroxypropoxy)-N-methylbenzenesulfonamide]: the IC50 came out at 0.0124 µM.

As for `Cc1cc(S(=O)(=O)N2CCC3(CC2)C[C@@H](NC[C@H](O)COc2cccc(S(N)(=O)=O)c2)CO3)ccc1Br` [Compound 590, 3-((S)-3-((R)-8-(4-bromo-3-methylphenylsulfonyl)-1-oxa-8-azaspiro[4.5]decan-3-ylamino)-2-hydroxypropoxy)benzenesulfonamide], the IC50 came to 0.0174 µM.

With `CNS(=O)(=O)c1cccc(OC[C@@H](O)CN[C@H]2COC3(CCN(c4ncc(Cc5ccccc5)cn4)CC3)C2)c1` [Compound 570, 3-((S)-3-((R)-8-(5-benzylpyrimidin-2-yl)-1-oxa-8-azaspiro[4.5]decan-3-ylamino)-2-hydroxypropoxy)-N-methylbenzenesulfonamide], the IC50 turned out to be 0.143 µM.

For `CNS(=O)(=O)c1cccc(OC[C@@H](O)CNC2COC3(CCN(S(=O)(=O)c4cnn(-c5ccccc5)c4C)CC3)C2)c1` (stereo partly drawn) [Compound 132, 3-((2S)-2-hydroxy-3-(8-(5-methyl-1-phenyl-1H-pyrazol-4-ylsulfonyl)-1-oxa-8-azaspiro[4.5]decan-3-ylamino)propoxy)-N-methylbenzenesulfonamide], the IC50 came to 0.0108 µM.

Take `CNS(=O)(=O)c1cccc(OC[C@@H](O)CNC2COC3(CCN(S(=O)(=O)c4cc(F)ccc4OC)CC3)C2)c1` (stereo partly drawn) [Compound 238, 3-((2S)-3-(8-(5-fluoro-2-methoxyphenylsulfonyl)-1-oxa-8-azaspiro[4.5]decan-3-ylamino)-2-hydroxypropoxy)-N-methylbenzenesulfonamide]: the IC50 worked out at 0.0384 µM.

For `CNS(=O)(=O)c1cccc(OC[C@@H](O)CNC2COC3(CCN(S(=O)(=O)c4cccc(-c5ccc(CNC(=O)C(N)=O)cc5)c4)CC3)C2)c1` (stereo partly drawn) [Compound 354, N^1-((3′-(3-((S)-2-hydroxy-3-(3-(N-methylsulfamoyl)phenoxy)propylamino)-1-oxa-8-azaspiro[4.5]decan-8-ylsulfonyl)biphenyl-4-yl)methyl)oxalamide], the IC50 turned out to be 0.0352 µM.
